In ChEMBL document CHEMBL5291721, “A preclinical secondary pharmacology resource illuminates target-adverse drug reaction associations of marketed drugs” (Nat Commun, 2023) one finds AC50 data, which are given here for 15 compounds.

One assay concerns the target T1, Progesterone receptor (Homo sapiens, UniProt P06401).
T1 sequence (P06401 whole entry): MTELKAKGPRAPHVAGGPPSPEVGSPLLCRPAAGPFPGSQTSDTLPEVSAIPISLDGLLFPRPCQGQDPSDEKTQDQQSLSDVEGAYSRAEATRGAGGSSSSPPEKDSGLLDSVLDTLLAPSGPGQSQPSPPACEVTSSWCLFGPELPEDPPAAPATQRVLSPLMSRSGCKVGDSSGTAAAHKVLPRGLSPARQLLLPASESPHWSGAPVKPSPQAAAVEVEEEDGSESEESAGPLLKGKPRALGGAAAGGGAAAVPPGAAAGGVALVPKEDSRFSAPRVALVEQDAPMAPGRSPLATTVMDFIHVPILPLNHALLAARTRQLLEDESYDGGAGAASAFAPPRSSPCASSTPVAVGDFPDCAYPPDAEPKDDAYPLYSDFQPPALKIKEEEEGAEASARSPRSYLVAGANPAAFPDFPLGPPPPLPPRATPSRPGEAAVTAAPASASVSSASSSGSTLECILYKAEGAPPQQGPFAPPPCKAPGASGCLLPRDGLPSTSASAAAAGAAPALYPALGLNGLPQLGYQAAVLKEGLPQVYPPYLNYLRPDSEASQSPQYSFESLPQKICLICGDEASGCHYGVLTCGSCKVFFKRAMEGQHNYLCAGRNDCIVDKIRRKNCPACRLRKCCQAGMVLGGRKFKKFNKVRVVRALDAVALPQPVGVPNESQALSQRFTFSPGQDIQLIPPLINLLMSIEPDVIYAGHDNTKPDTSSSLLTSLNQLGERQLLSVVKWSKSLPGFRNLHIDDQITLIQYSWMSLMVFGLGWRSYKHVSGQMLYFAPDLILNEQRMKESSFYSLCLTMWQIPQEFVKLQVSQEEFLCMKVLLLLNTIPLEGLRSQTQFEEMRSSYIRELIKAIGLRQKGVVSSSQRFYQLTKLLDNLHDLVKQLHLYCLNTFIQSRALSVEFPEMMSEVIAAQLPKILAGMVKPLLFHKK

Assay [1] concerns the target T2, Androgen receptor (Rattus norvegicus, UniProt P15207).
T2 sequence (P15207 whole entry): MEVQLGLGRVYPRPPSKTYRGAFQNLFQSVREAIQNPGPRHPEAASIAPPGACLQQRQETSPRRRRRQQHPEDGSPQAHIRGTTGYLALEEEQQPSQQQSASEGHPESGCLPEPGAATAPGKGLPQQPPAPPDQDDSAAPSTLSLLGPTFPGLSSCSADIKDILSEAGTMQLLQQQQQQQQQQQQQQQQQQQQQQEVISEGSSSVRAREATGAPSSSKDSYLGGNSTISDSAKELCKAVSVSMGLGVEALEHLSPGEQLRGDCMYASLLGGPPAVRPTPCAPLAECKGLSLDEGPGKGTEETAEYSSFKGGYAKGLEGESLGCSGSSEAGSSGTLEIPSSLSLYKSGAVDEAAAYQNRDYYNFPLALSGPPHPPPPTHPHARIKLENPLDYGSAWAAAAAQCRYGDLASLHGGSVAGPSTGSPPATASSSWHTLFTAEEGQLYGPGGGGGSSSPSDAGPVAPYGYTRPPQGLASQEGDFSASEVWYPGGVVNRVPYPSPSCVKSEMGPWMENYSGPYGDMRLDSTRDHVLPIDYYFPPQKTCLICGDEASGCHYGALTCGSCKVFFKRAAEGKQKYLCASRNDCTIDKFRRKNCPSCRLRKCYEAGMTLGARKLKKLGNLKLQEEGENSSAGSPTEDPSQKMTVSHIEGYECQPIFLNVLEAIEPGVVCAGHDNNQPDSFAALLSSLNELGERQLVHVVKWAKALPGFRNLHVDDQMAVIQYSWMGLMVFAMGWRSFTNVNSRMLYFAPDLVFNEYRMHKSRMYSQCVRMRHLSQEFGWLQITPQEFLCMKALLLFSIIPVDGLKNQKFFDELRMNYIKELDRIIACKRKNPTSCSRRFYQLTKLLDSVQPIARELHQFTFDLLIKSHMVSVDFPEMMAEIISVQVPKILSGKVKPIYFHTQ
The class given is functional.

Assay [2] addresses 5-hydroxytryptamine receptor 2A (Homo sapiens, UniProt P28223).
Assay [3] addresses T2, Androgen receptor. It is filed as functional. This is another data set of the same source.
In assay [4] the target is T3, 5-hydroxytryptamine receptor 1A (Homo sapiens, UniProt P08908).
T3 sequence (P08908 whole entry): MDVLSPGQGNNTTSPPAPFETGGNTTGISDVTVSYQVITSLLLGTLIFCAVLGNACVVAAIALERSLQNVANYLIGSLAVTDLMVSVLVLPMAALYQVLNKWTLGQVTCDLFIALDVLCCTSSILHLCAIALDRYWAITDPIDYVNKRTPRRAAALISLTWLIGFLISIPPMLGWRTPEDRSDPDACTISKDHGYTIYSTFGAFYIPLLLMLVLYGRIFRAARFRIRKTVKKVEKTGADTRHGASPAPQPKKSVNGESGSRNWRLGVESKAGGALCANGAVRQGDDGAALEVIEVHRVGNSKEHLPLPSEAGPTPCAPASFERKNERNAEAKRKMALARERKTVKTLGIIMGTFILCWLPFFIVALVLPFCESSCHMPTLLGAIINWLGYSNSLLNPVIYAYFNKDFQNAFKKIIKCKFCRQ

Assay [5] has as its target Beta-2 adrenergic receptor (Homo sapiens, UniProt P07550). The class given is functional, cell-based.
Assay [6] concerns the target 5-hydroxytryptamine receptor 2B (Homo sapiens, UniProt P41595).
The target of assay [7] is T4, Alpha-2A adrenergic receptor (Homo sapiens, UniProt P08913).
T4 sequence (P08913 whole entry): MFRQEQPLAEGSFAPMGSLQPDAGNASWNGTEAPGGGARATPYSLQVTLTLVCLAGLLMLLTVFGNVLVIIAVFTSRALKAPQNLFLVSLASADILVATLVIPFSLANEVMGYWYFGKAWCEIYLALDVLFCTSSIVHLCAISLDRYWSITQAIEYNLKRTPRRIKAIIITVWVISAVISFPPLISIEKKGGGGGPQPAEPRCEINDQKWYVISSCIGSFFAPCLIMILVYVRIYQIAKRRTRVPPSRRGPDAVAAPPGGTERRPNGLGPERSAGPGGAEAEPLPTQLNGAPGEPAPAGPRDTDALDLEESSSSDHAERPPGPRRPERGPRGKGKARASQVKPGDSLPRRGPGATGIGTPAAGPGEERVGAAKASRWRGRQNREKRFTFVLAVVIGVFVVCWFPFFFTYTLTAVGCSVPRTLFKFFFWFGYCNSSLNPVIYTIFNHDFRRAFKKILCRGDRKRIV

The target of the next assay is D(1A) dopamine receptor (Homo sapiens, UniProt P21728).
Sequence of D(1A) dopamine receptor (P21728 whole entry): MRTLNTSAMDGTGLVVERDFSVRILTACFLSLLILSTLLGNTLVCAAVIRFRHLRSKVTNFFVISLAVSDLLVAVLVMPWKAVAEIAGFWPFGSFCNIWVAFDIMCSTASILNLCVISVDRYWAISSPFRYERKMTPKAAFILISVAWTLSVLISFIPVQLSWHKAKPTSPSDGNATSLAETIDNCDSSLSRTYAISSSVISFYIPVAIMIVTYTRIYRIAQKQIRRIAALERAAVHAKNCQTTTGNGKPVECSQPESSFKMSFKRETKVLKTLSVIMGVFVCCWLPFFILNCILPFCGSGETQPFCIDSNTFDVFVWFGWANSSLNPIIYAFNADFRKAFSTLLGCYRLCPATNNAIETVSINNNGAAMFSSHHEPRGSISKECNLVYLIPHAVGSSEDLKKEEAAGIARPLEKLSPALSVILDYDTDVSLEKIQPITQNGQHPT
Further: assay procedure not described here.

Sequence of 5-hydroxytryptamine receptor 2A (P28223 whole entry): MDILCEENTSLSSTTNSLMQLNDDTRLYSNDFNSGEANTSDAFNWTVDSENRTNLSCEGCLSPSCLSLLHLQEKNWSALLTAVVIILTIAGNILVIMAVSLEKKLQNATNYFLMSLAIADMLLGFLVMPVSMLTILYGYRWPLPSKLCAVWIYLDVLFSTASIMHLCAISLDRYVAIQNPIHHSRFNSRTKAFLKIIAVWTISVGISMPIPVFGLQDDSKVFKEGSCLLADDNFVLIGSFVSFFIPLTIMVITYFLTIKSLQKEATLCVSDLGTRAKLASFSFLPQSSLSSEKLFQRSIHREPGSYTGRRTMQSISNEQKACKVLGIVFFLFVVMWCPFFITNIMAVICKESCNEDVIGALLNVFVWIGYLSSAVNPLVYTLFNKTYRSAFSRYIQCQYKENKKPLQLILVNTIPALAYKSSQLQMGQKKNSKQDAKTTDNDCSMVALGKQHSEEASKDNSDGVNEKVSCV
Sequence of Beta-2 adrenergic receptor (P07550 whole entry): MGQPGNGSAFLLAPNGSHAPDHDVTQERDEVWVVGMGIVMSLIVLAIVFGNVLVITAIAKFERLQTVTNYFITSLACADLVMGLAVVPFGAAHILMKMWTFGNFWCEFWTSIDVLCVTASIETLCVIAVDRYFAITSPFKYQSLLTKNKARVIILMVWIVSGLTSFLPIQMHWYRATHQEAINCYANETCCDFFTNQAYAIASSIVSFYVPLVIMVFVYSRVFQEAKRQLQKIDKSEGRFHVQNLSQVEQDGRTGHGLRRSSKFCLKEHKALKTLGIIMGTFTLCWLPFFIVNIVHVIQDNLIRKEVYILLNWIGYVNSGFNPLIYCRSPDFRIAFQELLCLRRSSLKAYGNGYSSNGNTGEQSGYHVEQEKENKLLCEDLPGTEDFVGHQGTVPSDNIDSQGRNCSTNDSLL
Sequence of 5-hydroxytryptamine receptor 2B (P41595 whole entry): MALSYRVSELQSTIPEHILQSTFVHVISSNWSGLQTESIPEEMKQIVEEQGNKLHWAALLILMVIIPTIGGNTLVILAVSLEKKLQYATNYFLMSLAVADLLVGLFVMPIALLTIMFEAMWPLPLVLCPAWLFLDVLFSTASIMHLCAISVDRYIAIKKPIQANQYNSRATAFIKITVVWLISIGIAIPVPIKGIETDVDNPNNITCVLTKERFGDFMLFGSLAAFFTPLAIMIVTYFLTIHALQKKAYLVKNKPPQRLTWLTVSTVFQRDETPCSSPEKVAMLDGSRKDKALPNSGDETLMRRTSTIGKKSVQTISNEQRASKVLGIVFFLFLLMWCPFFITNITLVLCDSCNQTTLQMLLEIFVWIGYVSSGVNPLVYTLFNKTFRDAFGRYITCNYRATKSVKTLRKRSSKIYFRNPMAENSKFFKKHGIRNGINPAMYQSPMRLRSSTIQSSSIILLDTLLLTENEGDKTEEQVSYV

As for `CC(=O)O[C@H]1CC[C@@]2(C)C(=CC[C@@H]3[C@@H]2CC[C@]2(C)C(c4cccnc4)=CC[C@@H]32)C1` [ABIRATERONE ACETATE], the half-maximal activity concentration (AC50) at Progesterone receptor was 3.1 µM; at Androgen receptor [1], above 30 µM; in assay [2] it was above 10 µM; on Androgen receptor [3], above 30 µM; in assay [4] it was above 10 µM; in assay [5], above 30 µM.

Regarding `COc1ccccc1OCCNCC(O)c1ccc(C)c(S(N)(=O)=O)c1` (stereo not drawn) [AMOSULALOL], the AC50 in assay [6] is above 30 µM; on Androgen receptor [1] it was above 30 µM; at Androgen receptor [3], above 30 µM; in assay [4] it was 0.052 µM.

In the case of `Cc1cc(O)c(C(=O)N[C@@H](C(=O)N[C@@H]2C(=O)N3C(C(=O)O)=C(CSc4nnnn4C)CS[C@H]23)c2ccc(O)cc2)cn1` [CEFPIRAMIDE], the concentration at half-maximal activity (AC50) at Androgen receptor [1] and on Androgen receptor [3] was above 30 µM throughout.

Regarding `Cn1c(=O)c2c(ncn2CC2OCCO2)n(C)c1=O` [DOXOFYLLINE], the AC50 (on Androgen receptor [1]; on Androgen receptor [3]; in [5]) was above 30 µM in each case.

Turning to `CCc1c(Cl)c(O)c(Cl)c(O)c1C(=O)O[C@H]1[C@H](O)[C@H](OC)[C@H](OC/C2=C\C=C\C[C@H](O)/C(C)=C/[C@H](CC)[C@@H](O[C@@H]3OC(C)(C)[C@@H](OC(=O)C(C)C)[C@H](O)[C@@H]3O)/C(C)=C/C(C)=C/C[C@@H]([C@@H](C)O)OC2=O)O[C@@H]1C` [FIDAXOMICIN], the AC50 in assay [7] was above 10 µM; on D(1A) dopamine receptor, above 10 µM; in assay [6], above 10 µM; at Progesterone receptor it was 11.3 µM; on Androgen receptor [1], above 30 µM; in assay [2], above 10 µM. In [4], this compound displayed a half-maximal activity concentration (AC50) above 10 µM.

For `CCC(C(=O)O)c1ccc(N2Cc3ccccc3C2=O)cc1` (stereo not drawn) [INDOBUFEN], the AC50 (on Androgen receptor [1]; on Androgen receptor [3]; in [5]) was above 30 µM each time.

As to `CC(C)OC(=O)CCC/C=C\C[C@@H]1[C@@H](CC[C@@H](O)CCc2ccccc2)[C@H](O)C[C@@H]1O` [LATANOPROST], the half-maximal activity concentration (AC50) (on Androgen receptor [1]; on Androgen receptor [3]; in assay [5]) was above 30 µM throughout.

Consider `CC(Oc1c(Cl)cccc1Cl)C1=NCCN1` (stereo not drawn) [LOFEXIDINE], for which the AC50 on Androgen receptor [1] is above 30 µM; at Androgen receptor [3] it was above 30 µM; in [4], 0.29 µM.

With `CN1C(=O)C(O)N=C(c2ccccc2Cl)c2cc(Cl)ccc21` (stereo not drawn) [LORMETAZEPAM], the AC50 on Androgen receptor [1] and at Androgen receptor [3] was above 30 µM in each case.

Consider `CC(C)=CCC/C(C)=C/C=C/C(C)=C/C=C/C(C)=C/C=C/C=C(C)/C=C/C=C(C)/C=C/C=C(\C)CCC=C(C)C` [LYCOPENE], for which the AC50 at Androgen receptor [1] was above 30 µM; at Androgen receptor [3], 24 µM.

`COc1ccc2c3c1O[C@H]1C(=O)CC[C@@]4(O)[C@@H](C2)N(C)CC[C@]314` [OXYCODONE]: the concentration at half-maximal activity (AC50) at Androgen receptor [1] and on Androgen receptor [3] was above 30 µM throughout.

Regarding `Clc1ccc(CCCOCCCN2CCCCC2)cc1` [PITOLISANT], the half-maximal activity concentration (AC50) (at Androgen receptor [1]; on Androgen receptor [3]; in assay [5]) was above 30 µM throughout.

With `Cc1ccc(-n2nccn2)c(C(=O)N2CCN(c3nc4cc(Cl)ccc4o3)CC[C@H]2C)c1` [SUVOREXANT], the concentration at half-maximal activity (AC50) on Androgen receptor [1] and on Androgen receptor [3] was above 30 µM each time.

For `CN1C(=O)C(O)N=C(c2ccccc2)c2cc(Cl)ccc21` (stereo not drawn) [TEMAZEPAM], the half-maximal activity concentration (AC50) in assay [7] is above 10 µM; on D(1A) dopamine receptor it was above 10 µM; in assay [6] it was above 10 µM; on Progesterone receptor, above 30 µM; in assay [2], above 10 µM; in [4], above 10 µM. This compound also yielded an AC50 in [5] above 30 µM.

As to `CCN(CC)C(=O)N[C@H]1C[C@@H]2c3cccc4[nH]cc(c34)C[C@H]2N(C)C1` [TERGURIDE], the AC50 on D(1A) dopamine receptor was 0.41 µM; on Androgen receptor [1], above 30 µM; at Androgen receptor [3], above 30 µM; in [5] it was above 30 µM.
